The supplement of paper PMC10307832

Tests used:
Assay in all cases: relative viability (nuclei count vs DMSO), 5 days (fraction); higher = more cells survive
[1] = compound: C1CSC2=C(C(=O)N1)SC3=C2C=C(C=C3)O [kb NB 142-70] + CCNC(=O)c1noc(-c2cc(C(C)C)c(O)cc2O)c1-c1ccc(CN2CCOCC2)cc1 [Luminespib] (partner 0.01 µM)
Procedure, shortened: (§1)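 A single step with final 0.05% Triton X-100, 1% formaldehyde and 1 ug/ml Hoechst fixed the cells and stained nuclei 5 days after treatment. Lung cancer cell lines in 1536-well plates had been treated by pin tool the day after seeding with one drug alone or a fixed anchor-drug dose plus five library-drug doses (not always all listed) in √10 steps, and nuclei were counted on 4× images. Relative viability is the ratio of nuclei in treated wells to nuclei in vehicle wells, taken as the median of duplicate plates.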

[2] = compound: C1CSC2=C(C(=O)N1)SC3=C2C=C(C=C3)O [kb NB 142-70] + Nc1nc2[nH]cc(CCc3ccc(C(=O)N[C@@H](CCC(=O)O)C(=O)O)cc3)c2c(=O)[nH]1 [Pemetrexed] (partner 0.2 µM)
Procedure, shortened: as §1

[3] = compound: C1CSC2=C(C(=O)N1)SC3=C2C=C(C=C3)O [kb NB 142-70] + C[C@@H](Oc1cc(-c2cnn(C3CCNCC3)c2)cnc1N)c1c(Cl)ccc(F)c1Cl [Crizotinib] (partner 1 µM)
Procedure, shortened: as §1

[4] = compound: NCC(=O)Nc1ccc(-n2nc(C(F)(F)F)cc2-c2ccc3c(ccc4ccccc43)c2)cc1 + CC(C)C[C@H](NC(=O)[C@H](Cc1ccccc1)NC(=O)c1cnccn1)B(O)O [Bortezomib] (partner 0.002 µM)
Procedure, shortened: as §1

[5] = compound: NCC(=O)Nc1ccc(-n2nc(C(F)(F)F)cc2-c2ccc3c(ccc4ccccc43)c2)cc1 + C[C@]1(O)C[C@@H](c2nc(-c3ccc4ccc(-c5ccccc5)nc4c3)c3c(N)nccn32)C1 [Linsitinib] (partner 1 µM)
Procedure, shortened: as §1

Cell Line	relative viability ([1]; first compound 0.1 µM)	relative viability ([1]; first compound 1 µM)	relative viability ([1]; first compound 3.162 µM)	relative viability ([2]; first compound 0.1 µM)	relative viability ([2]; first compound 1 µM)	relative viability ([2]; first compound 3.162 µM)	relative viability ([3]; first compound 0.1 µM)	relative viability ([3]; first compound 1 µM)	relative viability ([3]; first compound 3.162 µM)	relative viability ([4]; first compound 0.02 µM)	relative viability ([4]; first compound 0.06325 µM)	relative viability ([4]; first compound 0.2 µM)	relative viability ([4]; first compound 0.6325 µM)	relative viability ([4]; first compound 2 µM)	relative viability ([5]; first compound 0.02 µM)	relative viability ([5]; first compound 0.06325 µM)	relative viability ([5]; first compound 0.2 µM)	relative viability ([5]; first compound 0.6325 µM)	relative viability ([5]; first compound 2 µM)
LOU-NH91	0.312	0.316	0.286	0.432	0.462	0.386	0.75	0.732	0.644	0.485	0.523	0.485	0.511	0.484	0.984	1.04	0.891	0.959	1.09
LU99A	0.272	0.246	0.265	0.175	0.196	0.187	0.577	0.506	0.397	1.14	1.27	1.06	1.07	1.1	0.556	0.571	0.555	0.618	0.532
LXF-289	0.78	0.621	0.49	0.86	0.989	0.715	0.776	0.796	0.744	1.05	1.1	0.966	1.02	1.01	0.924	0.995	0.989	0.985	0.901
NCI-H23	0.231	0.207	0.201	0.621	0.594	0.367	0.502	0.522	0.253	0.908	1.11	1.1	1.02	1.12	0.484	0.582	0.662	0.476	0.552
NCI-H322M	0.767	0.947	0.693	0.614	0.631	0.45	1	1.1	1	1.41	1.29	1.15	1.18	1.14	1.04	0.916	0.924	0.884	0.976
NCI-H441	0.397	0.353	0.244	0.269	0.248	0.196	0.958	0.64	0.433	0.931	0.481	0.308	0.409	0.361	0.634	0.486	0.509	0.657	0.668
NCI-H460	0.0325	0.0315	0.0216	0.058	0.0629	0.0654	0.766	0.801	0.326	1.21	1.11	1.07	1.03	1.07	0.823	0.757	0.855	0.717	0.738
NCI-H520	0.255	0.247	0.214	0.765	0.667	0.375	0.869	0.825	0.507	0.646	0.568	1.05	0.671	0.789	1.02	0.904	1.07	0.91	1.13
NCI-H596	0.945	1.11	0.876	0.484	0.507	0.461	1.03	1.03	0.933	1.27	1.1	0.883	1.96	1.05	1.05	1.06	0.989	1.02	1.04
NCI-H647	0.177	0.184	0.11	0.186	0.192	0.178	1.08	1.27	1.12	1.14	1.18	1.09	1.04	0.99	1.23	1.25	1.12	1.31	0.915
NCI-H650	0.76	0.777	0.499	1.07	1.03	0.843	0.715	0.683	0.449	0.663	1.02	0.931	0.677	0.907	0.638	1.01	1.02	0.862	1.08
NCI-H661	0.905	0.845	0.805	0.967	0.867	0.856	1.05	0.969	1.22	0.785	0.853	0.737	0.784	0.762	0.573	0.584	0.582	0.496	0.566
NCI-H838	0.374	0.339	0.218	0.257	0.248	0.245	0.782	0.914	0.877	0.81	0.788	1.06	0.746	0.727	1.03	1.01	1.1	0.925	0.881
NCI-H1355	0.733	0.683	0.553	0.943	1.06	1.04	1.02	1.03	1.05	1.22	1.28	1.15	1.19	1.29	0.769	0.855	0.849	0.867	0.82
NCI-H1437	1.12	1.1	0.932	0.297	0.359	0.349	1.01	0.997	0.946	0.531	0.422	0.536	0.487	0.499	0.944	1.05	1.07	1.1	1.02
NCI-H1563	0.597	0.498	0.538	0.864	0.961	0.774	0.864	0.853	0.839	0.77	0.962	0.69	0.925	0.928	1.33	1.22	1.2	1.19	1.28
NCI-H1651	0.926	0.856	0.354	0.598	0.578	0.552	0.908	0.842	0.879	0.961	0.919	0.977	0.909	0.985	0.945	1.05	0.963	1.01	1.01

Cell Line	relative viability ([1]; first compound 0.1 µM)	relative viability ([1]; first compound 1 µM)	relative viability ([1]; first compound 3.162 µM)	relative viability ([2]; first compound 0.1 µM)	relative viability ([2]; first compound 1 µM)	relative viability ([2]; first compound 3.162 µM)	relative viability ([3]; first compound 0.1 µM)	relative viability ([3]; first compound 1 µM)	relative viability ([3]; first compound 3.162 µM)	relative viability ([4]; first compound 0.02 µM)	relative viability ([4]; first compound 0.06325 µM)	relative viability ([4]; first compound 0.2 µM)	relative viability ([4]; first compound 0.6325 µM)	relative viability ([4]; first compound 2 µM)	relative viability ([5]; first compound 0.02 µM)	relative viability ([5]; first compound 0.06325 µM)	relative viability ([5]; first compound 0.2 µM)	relative viability ([5]; first compound 0.6325 µM)	relative viability ([5]; first compound 2 µM)
NCI-H1666	0.898	0.985	0.81	0.811	0.977	0.897	1.09	0.871	0.676	0.788	0.769	1.03	0.951	0.906	0.703	0.993	0.861	0.912	0.844
NCI-H1734	0.185	0.205	0.171	0.395	0.369	0.376	0.68	0.652	0.383	1.1	0.957	0.886	1.02	0.891	0.916	0.856	0.988	0.823	0.925
NCI-H1755	0.49	0.45	0.557	0.43	0.403	0.519	0.852	0.923	0.915	0.892	0.935	0.958	0.946	0.978	1.08	1.01	0.98	0.991	0.995
NCI-H1792	0.429	0.582	0.553	0.862	0.828	1.13	0.995	1.01	0.914	1.02	0.974	0.932	0.946	0.966	0.507	0.647	0.549	0.625	0.552
NCI-H1915	0.797	0.897	0.489	0.462	0.532	0.474	0.887	0.915	0.481	0.889	1.01	0.964	0.932	1.03	1.05	1.07	1.17	1.09	1.1
NCI-H1975	0.286	0.197	0.106	0.259	0.309	0.239	0.899	0.959	0.842	0.37	0.414	0.44	0.345	0.426	0.927	0.92	0.973	0.983	0.921
NCI-H1993	1.03	0.858	0.673	0.562	0.597	0.554	0.842	0.892	0.854	1.1	1.28	1.08	1.15	1.21	0.81	0.767	0.718	0.843	0.724
NCI-H2009	1.15	1.05	0.685	1.05	1.09	0.977	1	1.12	0.652	0.911	1.05	0.825	0.963	1.08	1.22	1.18	1.23	1.21	1.12
NCI-H2023	0.747	0.661	0.272	0.253	0.283	0.221	0.699	0.761	0.551	0.993	1.13	0.724	0.932	0.904	0.805	0.682	0.712	0.623	0.707
NCI-H2085	0.383	0.358	0.339	0.866	0.947	0.792	0.754	0.814	0.663	1.09	1.05	1.03	1	1.07	0.964	0.943	1.03	1.03	0.932
NCI-H2087	0.183	0.164	0.116	0.569	0.681	0.527	0.562	0.903	0.868	0.818	0.743	0.621	0.649	0.896	0.867	1.02	1.03	1.1	0.988
NCI-H2126	0.797	0.878	0.879	0.666	0.702	0.762	1.04	1.06	0.983	1.12	1.15	1.15	1.13	1.14	0.7	0.745	0.687	0.664	0.763
NCI-H2228	0.176	0.13	0.119	0.375	0.376	0.24	0.519	0.561	0.27	0.749	0.935	1.01	1.38	0.914	0.872	0.676	0.707	0.603	0.79
NCI-H2347	0.387	0.431	0.387	0.453	0.449	0.426	0.685	0.707	0.594	0.956	1.18	1.02	1.12	0.945	0.953	0.98	1.04	1.07	1.01
NCI-H2405	0.733	0.728	0.523	1.11	0.995	0.523	0.796	0.885	0.717	0.924	1.04	0.999	0.961	0.987	0.91	1.01	0.923	0.921	0.971
NCI-H3122	0.0874	0.075	0.0881	0.2	0.21	0.289	0.268	0.242	0.192	1.02	1.02	0.984	1	1.05	1.06	1.09	1.03	1.04	1.04
